Reference: patent publication US20180207164A1, “COMBINATION THERAPIES FOR TREATING CANCERS” (GILEAD SCIENCES, INC., priority 2015, published 2018)

Legend:
[1] = system: primary chronic lymphocytic leukemia (CLL) cells; assay: Apoptosis induction in primary CLL cells with αIgM/αIgG/αCD40 stimulation, without HS-5 co-culture (Annexin V/Live-Dead flow cytometry); assay type: cell-based, human; settings: for Maximal % Apoptosis: HS-5 (no co-culture), 66-72 hr post-compound addition, duplicate wells; for apoptosis observed in all CLL samples tested: at 30 nM; for average maximal proportion of apoptotic cells: primary αIgM/αIgG/αCD40 stimulated CLL cells
Experimental: (§1) The HS-5 human stromal cell line was obtained from ATCC (American Tissue Type Collection). Cells were maintained in lymphocyte growth medium (LGM): RPMI-1640 supplemented with 10% FBS, 1% penicillin-streptomycin, 10 mM HEPES, 1 mM sodium pyruvate, 55 μM β-mercaptoethanol, and 2 mM GlutaMax. With informed consent, whole blood was obtained from CLL subjects.
(§2) Peripheral blood mononuclear cells (PBMCs) were prepared from human whole blood obtained from CLL patients by Ficoll-separation in CPT tubes according to manufacturer's directions (Becton Dickinson). Isolated PBMCs were cryopreserved in freezing medium (50% IMDM, 40% FBS, and 10% DMSO) and held in the gas phase of liquid nitrogen until use. One day prior to plating of primary CLL cells, wells of a U-bottom 96-well plate were coated with 3.0×10^4 HS-5 cells and allowed to adhere overnight in a humidified 37° C. incubator supplemented with 5% CO2. The % CD5+/CD19^+ cells isolated were quantified via FACS staining.
(§3) Frozen primary CLL PBMCs were thawed, washed once in LGM, and rested for 3-5 hours in LGM at 37° C. prior to plating. Cells were then centrifuged at room temperature for 10 minutes and resuspended at 1.0-2.5×10^5 cells/mL in LGM for plating. Assay wells were set up in U-bottom 96-well tissue culture plates in the absence or presence of HS-5 co-culture. Compounds were diluted as described below. Assay plates were incubated for 1 hour prior to stimulation with αIgM/αIgG (7.8 μg/well) and αCD40 (4 μg/well). Positive and negative controls were set up. Cells were incubated for 66-72 hours in a 37° C. CO2 incubator and assayed for apoptosis.
(§4) Compounds were diluted from 10 mM DMSO stock solutions. Compound combinations were prepared by transferring 2 μl each of the appropriate working compound solutions or vehicle to wells of a 96-well polypropylene plate. A daughter plate was made by 100× dilution into media. The final assay plate was made by 10× dilution into the final assay plate described above. The final DMSO concentration was 0.1%.
(§5) Cells were transferred to a deep well (2 mL) assay block and rinsed with 1 mL cation free PBS (PBS^−/−). Cells were resuspended in Invitrogen's aqua Live/Dead reagent according to manufacturer's instructions and incubated 30 minutes on ice. Aqua Live/Dead was quenched with an equal volume of PBS^+/+ and 4% FBS (FACS buffer). Cells were centrifuged and labeled with αCD5-PE, αCD19-BV421 and AnnexinV-APC in a total volume of 80 μL and incubated 30 minutes on ice. After labeling, cells were rinsed twice in FACS buffer and then fixed with BD Fixation buffer for 30 minutes on ice. Cells were rinsed twice with FACS buffer and analyzed.
(§6) The percentage of CD5^+/CD19^+ cells was quantified in the PBMCs to provide an assessment of the malignant cell population in each sample. To evaluate apoptosis, flow cytometric sampling of 50 μL cell suspensions (5,000-25,000 total events) were collected on a BD FACS Canto II instrument using a high throughput screen (HTS) autosampler. The CD5^+CD19^+ population was gated, and data were collected for the Annexin V^−/Live-Dead^−, AnnexinV^+/Live-Dead^−, AnnexinV^+/Live-Dead^+, and Annexin V^−/Live-Dead^+ CLL populations.
(§7) Annexin V^+/Live-Dead^− or Annexin V^−/Live-Dead^+ cells were gated and percentages of positive cells in each population were recorded for each well and data were extracted to a flow cytometry standard (fcs) file. Average percentages of Annexin V^+/Live-Dead^− and Annexin V^−/Live-Dead^+ were determined.
EC50 values were calculated based on log concentration of drug and percent Annexin V^+/Live-Dead^− and Annexin V^−/Live-Dead^+ cells using a 4 parameter nonlinear regression algorithm in Prism 6.01 of the GraphPad software (San Diego, Calif. USA, www.graphpad.com). Each run generated a single EC50 based on duplicate well values at each compound dilution. EC50 values and Hill slopes generated from each curve fit were reported. […]

[2] = system: CLL; settings: human, in vivo; cited from earlier work
[3] = system: primary CLL cells + HS-5 co-culture; assay: Apoptosis induction in primary CLL cells with αIgM/αIgG/αCD40 stimulation in HS-5 stromal cell co-culture; assay type: cell-based, human; settings: for Maximal % Apoptosis: +HS-5, 1 μM compound, 66-72 hr post-compound addition, duplicate wells
Experimental: as §1, §2
One day prior to plating of primary CLL cells, wells of a U-bottom 96-well plate were coated with 3.0×10^4 HS-5 cells and allowed to adhere overnight in a humidified 37° C. incubator supplemented with 5% CO2.
as §3, §4, §5, §6, §7
EC50 values were calculated based on log concentration of drug and percent Annexin V^+/Live-Dead^− and Annexin V^−/Live-Dead^+ cells using a 4 parameter nonlinear regression algorithm in Prism 6.01 of the GraphPad software (San Diego, Calif. USA, www.graphpad.com). […]

| EC50 ([1]; Homo sapiens, CLL cell, primary CLL cells stimulated with αIgM/αIgG/αCD40, N=4, 66-72 h, read-out: geometric mean EC50 (±standard deviation) for induction of apoptosis) [nM] | Structure (SMILES) | Maximal % Apoptosis ([1]; Donor 3, 1 μM compound) [%] | Maximal % Apoptosis ([1]; Donor 4, 1 μM compound) [%] | Maximal % Apoptosis ([1]; Donor 5, 1 μM compound) [%] | Maximal % Apoptosis ([1]; Donor 6, 1 μM compound) [%] | Maximal % Apoptosis ([1]; Donor 10, 1 μM compound) [%] | apoptosis observed in all CLL samples tested [1] [%] | average maximal proportion of apoptotic cells [1] [%] | clinical efficacy in CLL [2] | Maximal % Apoptosis ([3]; Donor 3) [%] | Maximal % Apoptosis ([3]; Donor 4) [%] | average maximal apoptosis ([1]; 1 μM compound, αIgM/αIgG/αCD40 stimulated, 5 donors) [%] | apoptosis levels versus background in the presence of HS-5 co-culture ([3]; HS-5 co-culture, 5 donors tested, mean EC50 not reported) | dose-responsive effect in inducing apoptosis ([1]; primary CLL cells, single agent) |
| --- | --- | --- | --- | --- | --- | --- | --- | --- | --- | --- | --- | --- | --- | --- |
|  | CC1(C)CCC(CN2CCN(c3ccc(C(=O)NS(=O)(=O)c4ccc(NCC5CCOCC5)c([N+](=O)[O-])c4)c(Oc4cnc5[nH]ccc5c4)c3)CC2)=C(c2ccc(Cl)cc2)C1 [Compound B1, 4-[4-[[2-(4-chlorophenyl)-4,4-dimethyl-1-cyclohexen-1-yl]methyl]-1-piperazinyl]-N-[[3-nitro-4-[[(tetrahydro-2H-pyran-4-yl)methyl]amino]phenyl]sulfonyl]-2-(1H-pyrrolo[2,3-b]pyridin-5-yloxy)-benzamide] | 66.1 | 87.3 | 38.3 | 31.6 | 35.8 | > 60 | 91.4 | clinical efficacy in CLL | 30.8 | 80.8 |  |  |  |
|  | c1cn2cc(-c3ccc4cn[nH]c4c3)nc(Nc3ccc(N4CCOCC4)cc3)c2n1 [Compound D1, 6-(1H-indazol-6-yl)-N-(4-morpholinophenyl)imidazo[1,2-a]pyrazin-8-amine] |  |  |  |  |  | > 60 |  | clinical efficacy in CLL |  |  |  |  |  |
| 27.2 ± 11.3 | CC#CC(=O)N1CC[C@@H](n2c(=O)n(-c3ccc(Oc4ccccc4)cc3)c3c(N)ncnc32)C1 [Compound A1, 6-amino-9-[(3R)-1-(2-butynoyl)-3-pyrrolidinyl]-7-(4-phenoxyphenyl)-7,9-dihydro-8H-purin-8-one] | 30.0 | 67.3 | 10.4 | 14.1 | 20.0 |  |  |  | 10.1 | 45.5 | 21.1 | generally not increased above background in 3/5 donors tested |  |
|  | CCC(Nc1ncnc2[nH]cnc12)c1nc2cccc(F)c2c(=O)n1-c1ccccc1 (stereo not shown) [Compound C1, 2-(1-((9H-Purin-6-yl)amino)propyl)-5-fluoro-3-phenylquinazolin-4(3H)-one] | 50.8 | 60.1 | 12.1 | 15.0 | 17.6 |  | 23 |  | 15.2 | 30.6 |  |  | dose-responsive effect |
